We go through five compounds from DBAASP.

The structures appear in SMILES notation. Values after ≈ are worked out from the molar mass of the structure shown.

Test systems include Escherichia coli UB1005; Escherichia coli; Staphylococcus aureus MR; Staphylococcus aureus; Bacillus cereus; Lactococcus lactis; Candida krusei; Bacillus sp. ATCC 14412; Bacillus megaterium; Candida glabrata; Candida albicans A39; Yarrowia lipolytica; Micrococcus luteus; Bacillus megaterium KM; Escherichia coli K-12; Micrococcus luteus A270.
Holding throughout (test): ≥ marks a high value that may be exact or a test limit, other limits are often not marked, values filed in µg/mL are converted to µM
Assay [1] concerns Staphylococcus epidermidis.
The subject of assay [2] is Staphylococcus aureus ATCC 29213.
The test system of assay [3] is Enterococcus faecalis ATCC 29212.
For assay [4], the system named is Escherichia coli ATCC 25922.
Assay [5] relates to Enterococcus faecalis NCTC 12203.
In assay [6] the test system is Escherichia coli NCTC 10418.
For assay [7], the system named is Staphylococcus aureus ATCC 6538.
Assay [8] concerns Xanthomonas vesicatoria DSM 50861.
Assay [9] relates to Pseudomonas corrugata DSM 7228.
The subject of assay [10] is Pectobacterium carotovorum subsp. carotovorum DSM 30168.
Assay [11] has as its system Pseudomonas syringae pv. syringae DSM 10604.
The subject of assay [12] is Clavibacter michiganensis subsp. michiganensis DSM 46294.
Assay [13] relates to Pseudomonas syringae pv. tomato DC3000.
Assay [14] relates to Staphylococcus aureus 90857.
Assay [15] relates to Cryptococcus neoformans Steroform C.
The subject of assay [16] is Cryptococcus neoformans Steroform B.
Assay [17] concerns Cryptococcus neoformans Steroform A.
The subject of assay [18] is Cryptococcus neoformans Steroform D.
The subject of assay [19] is Staphylococcus haemolyticus.
For assay [20], the system named is Spiroplasma melliferum BC3.
The test system of assay [21] is Staphylococcus aureus ATCC 25923.
For assay [22], the system named is Salmonella typhimurium CIP 6062.
Assay [23] deals with Acholeplasma laidlawii A-PG8.
The test system of assay [24] is Sinorhizobium meliloti 102F34.
Assay [25] has as its system Pseudomonas aeruginosa ATCC 27853.

`CC[C@H](C)[C@H](NC(=O)[C@H](CCCCN)NC(=O)[C@@H](N)Cc1c[nH]c2ccccc12)C(=O)N[C@H](C(=O)N[C@@H](Cc1ccccc1)C(=O)N[C@@H](Cc1c[nH]c2ccccc12)C(=O)N[C@@H](Cc1c[nH]c2ccccc12)C(=O)N[C@@H](CCCN=C(N)N)C(=O)N[C@@H](CCCN=C(N)N)C(N)=O)C(C)C` [WKIVFWWRR]: the MIC in assay [1] amounted to 0.182 µM (≈ 0.25 µg/mL); in [2] it was 0.363 µM (≈ 0.5 µg/mL); in assay [3], 0.726 µM (≈ 0.999 µg/mL); in assay [4], 1.45 µM (≈ 2 µg/mL); in the assay with Escherichia coli UB1005, 2.91 µM (≈ 4 µg/mL); against Escherichia coli, 1.45 µM (≈ 2 µg/mL). For the same compound, the minimum inhibitory concentration (MIC) came to 0.363 µM (≈ 0.5 µg/mL) in the assay with Staphylococcus aureus MR and 0.726 µM (≈ 0.999 µg/mL) in assay [5].

Consider `CC[C@H](C)[C@H](NC(=O)[C@H](CCCCN)NC(=O)[C@H](CCCCN)NC(=O)[C@H](CC(C)C)NC(=O)[C@H](CC(=O)O)NC(=O)[C@@H](NC(=O)[C@@H](N)Cc1ccccc1)C(C)C)C(=O)N[C@@H](C)C(=O)N[C@@H](CC(N)=O)C(=O)N[C@H](C(=O)N[C@H](C(=O)N[C@@H](CC(N)=O)C(=O)N[C@@H](CO)C(=O)N[C@H](C(=O)N[C@@H](Cc1ccccc1)C(N)=O)[C@@H](C)CC)[C@@H](C)CC)[C@@H](C)CC` [FVDLKKIANIINSIF], for which the MIC is 14.4 µM (≈ 25 µg/mL) in the assay on Staphylococcus aureus; not below 100 µM in assay [6]; 3.1 µM (≈ 5.38 µg/mL) in assay [7]; 14.4 µM (≈ 25 µg/mL) with Bacillus cereus; 14.4 µM (≈ 25 µg/mL) with Lactococcus lactis; more than 100 µM against Escherichia coli.

On to `CC(C)C[C@H](NC(=O)[C@H](CCCCN)NC(=O)[C@H](CCCN=C(N)N)NC(=O)[C@H](CCCN=C(N)N)NC(=O)[C@@H](N)CCCCN)C(=O)N[C@@H](C)C(=O)N[C@@H](Cc1ccccc1)C(=O)N[C@@H](CCCN=C(N)N)C(=O)N[C@@H](CC(C)C)C(=O)N[C@@H](Cc1ccccc1)C(=O)N[C@@H](CCCN=C(N)N)C(=O)N[C@@H](CC(C)C)C(=O)N[C@@H](Cc1ccccc1)C(=O)N[C@@H](CC(C)C)C(=O)N[C@@H](CCCCN)C(=O)N[C@@H](CC(C)C)C(=O)N[C@H](C(=O)N[C@@H](CC(C)C)C(=O)N[C@@H](CCCCN)C(=O)N[C@@H](CCCCN)C(N)=O)C(C)C` [KRRKLAFRLFRLFLKLVLKK], for which the MIC in [8] was 0.0971 µM (≈ 0.25 µg/mL); in [9], 0.971 µM (≈ 2.5 µg/mL); in assay [10] it was 3.88 µM (≈ 10 µg/mL); in [11] it was 1.94 µM (≈ 5 µg/mL); in assay [12], 0.194 µM (≈ 0.5 µg/mL); in assay [13], 0.971 µM (≈ 2.5 µg/mL). The compound also yielded an MIC in assay [14] of 16 µM (≈ 41.2 µg/mL).

For the compound `CC[C@H](C)[C@H](NC(=O)[C@H](Cc1ccccc1)NC(=O)[C@@H](NC(=O)[C@@H]1CCCN1C(=O)[C@H](CCCN=C(N)N)NC(=O)[C@H](CO)NC(=O)[C@@H]1CCCN1C(=O)[C@H](CCCCN)NC(=O)[C@H](CCCN=C(N)N)NC(=O)[C@H](CC(C)C)NC(=O)[C@@H]1CCCN1C(=O)[C@H](CCCN=C(N)N)NC(=O)[C@@H](NC(=O)[C@H](Cc1ccc(O)cc1)NC(=O)CNC(=O)[C@H](CO)NC(=O)[C@H](CO)NC(=O)[C@@H](N)Cc1cnc[nH]1)[C@@H](C)O)[C@@H](C)CC)C(=O)N[C@@H](CCCN=C(N)N)C(=O)N1CCC[C@H]1C(=O)N[C@H](C(=O)NCC(N)=O)[C@@H](C)CC` [HSSGYTRPLRKPSRPIFIRPIG], the MIC was 7.07 µM (≈ 17.9 µg/mL) against Candida krusei; 1.79 µM (≈ 4.53 µg/mL) in assay [15]; 4.42 µM (≈ 11.2 µg/mL) in the assay with Bacillus sp. ATCC 14412; not below 50 µM with Bacillus megaterium; 7.07 µM (≈ 17.9 µg/mL) with Candida glabrata; 3.16 µM (≈ 8.02 µg/mL) in assay [16]. Also, the minimal inhibitory concentration (MIC) was 17.7 µM (≈ 44.8 µg/mL) against Candida albicans A39; 3.16 µM (≈ 8.02 µg/mL) in assay [17]; not below 50 µM in the assay on Bacillus cereus; 1.13 µM (≈ 2.87 µg/mL) in assay [18]; 3.16 µM (≈ 8.02 µg/mL) with Yarrowia lipolytica; 8.84 µM (≈ 22.4 µg/mL) in the assay on Micrococcus luteus. Further, the minimal inhibitory concentration (MIC) in assay [19] is not below 50 µM; with Escherichia coli, more than 50 µM.

`CC[C@H](C)[C@H](NC(=O)CNC(=O)[C@H](CO)NC(=O)[C@H](C)NC(=O)[C@@H](NC(=O)[C@H](CCCCN)NC(=O)[C@H](CO)NC(=O)[C@H](CCSC)NC(=O)[C@H](Cc1c[nH]c2ccccc12)NC(=O)CN)[C@@H](C)CC)C(=O)NCC(=O)N[C@H](C(=O)N[C@@H](Cc1ccccc1)C(=O)N[C@@H](CC(C)C)C(=O)N[C@@H](CO)C(=O)NCC(=O)N[C@@H](CCSC)C(=O)N[C@@H](CCC(N)=O)C(=O)N[C@@H](CCC(N)=O)C(N)=O)[C@@H](C)O` [GWMSKIASGIGTFLSGMQQ]: the minimal inhibitory concentration (MIC) against Bacillus megaterium KM is 3.12 µM (≈ 6.23 µg/mL); in assay [20] it was not below 50 µM; in assay [21], more than 100 µM; in [22], not below 100 µM; in the assay on Escherichia coli K-12 it was 10 µM (≈ 20 µg/mL); in [23], 12.5 µM (≈ 25 µg/mL). The minimal inhibitory concentration (MIC) in assay [24] was 12.5 µM (≈ 25 µg/mL); in [25] it was more than 100 µM; with Micrococcus luteus A270, 3 µM (≈ 6 µg/mL).

Usually MIC stands for the lowest concentration that inhibits growth of the organism.
